Source: patent US10604785B2 (priority 2016, dated 2020)
Residues, ends and D or L forms follow the SMILES beside them. *: point of attachment. Cbz = O=C(OCc1ccccc1)*

Test system: Rab33b
Type: cell-based

CC(C)C[C@@H](C=O)NC(=O)[C@H](CC(C)C)NC(=O)[C@H](CC(C)C)NC(=O)OCc1ccccc1 [MG132] (Cbz-Leu-Leu-Leu-aldehyde)
effect on level of modified Rab33b: does not affect the level of modified Rab33b
